Data reported in patent US5462935A, “Cephalosporin compounds” (Lucky Limited, priority 1990, dated 1995).
In brackets after ≈: the same amount, converted by molar mass.

Key:
[1] = test system: Proteus mirabilis ATCC 25933; test: minimal inhibitory concentration, two-fold agar dilution; assay type: cell-based; conditions: ATCC25933, Muller-Hinton agar, 37° C., 20 hours
Procedure: (§1) These NIC values were taken by employing a two-fold dilution method: that is, two-fold serial dilutions of each of the test compounds were made and dispersed in a Muller-Hinton agar medium; 2 μl of the standard test strain which had the 10^7 CFU (Colony Forming Unit) per ml was inoculated on the medium; and these were incubated at 37° C. for 20 hours.

ATCC 12228 = test: as above; assay type: cell-based; conditions: Staphylococcus faecalis, ATCC12228, 20 h
Procedure: as §1

[2] = test system: Proteus vulgaris ATCC 6059; test: as above; assay type: cell-based; conditions: ATCC6059, Muller-Hinton agar, 37° C., 20 hours
Procedure: as §1

[3] = test system: Bacillus megaterium ATCC 9885; test: as above; assay type: cell-based; conditions: Priestia megaterium, ATCC9885, 20 h
Procedure: as §1

[4] = test system: Shigella flexneri ATCC 11836; test: as above; assay type: cell-based; conditions: ATCC11836, Muller-Hinton agar, 37° C., 20 hours
Procedure: as §1

[5] = test system: Enterobacter cloacae ATCC 27508; test: as above; assay type: cell-based; conditions: ATCC27508, Muller-Hinton agar, 37° C., 20 hours
Procedure: as §1

[6] = test system: Staphylococcus epidermidis ATCC 10537; test: as above; assay type: cell-based; conditions: ATCC10537, Muller-Hinton agar, 37° C., 20 hours
Procedure: as §1

[7] = test system: Escherichia coli ATCC 25922; test: as above; assay type: cell-based; conditions: ATCC25922, Muller-Hinton agar, 37° C., 20 hours
Procedure: as §1

[8] = test system: Pseudomonas aeruginosa ATCC 25619; test: as above; assay type: cell-based; conditions: ATCC25619, Muller-Hinton agar, 37° C., 20 hours
Procedure: as §1

[9] = test system: Escherichia coli ATCC 10536; test: as above; assay type: cell-based; conditions: ATCC10536, Muller-Hinton agar, 37° C., 20 hours
Procedure: as §1

[10] = test system: Providencia rettgeri ATCC 9250; test: as above; assay type: cell-based; conditions: ATCC9250, Muller-Hinton agar, 37° C., 20 hours
Procedure: as §1

[11] = test system: Pseudomonas aerugionsa ATCC 10145; test: as above; assay type: cell-based; conditions: ATCC10145, Muller-Hinton agar, 37° C., 20 hours
Procedure: as §1

[12] = test system: Shigella sonnei ATCC 11060; test: as above; assay type: cell-based; conditions: ATCC11060, Muller-Hinton agar, 37° C., 20 hours
Procedure: as §1

[13] = test system: Morganella morganii ATCC 8076h; test: as above; assay type: cell-based; conditions: ATCC8076H, 20 h
Procedure: as §1

[14] = test system: Pseudomonas aerugionsa ATCC 27853; test: as above; assay type: cell-based; conditions: ATCC27853, Muller-Hinton agar, 37° C., 20 hours
Procedure: as §1

[15] = test system: Serratia marcescens ATCC 27117; test: as above; assay type: cell-based; conditions: ATCC27117, Muller-Hinton agar, 37° C., 20 hours
Procedure: as §1

[16] = test system: Klebsiella pneumoniae ATCC 10031; test: as above; assay type: cell-based; conditions: ATCC10031, Muller-Hinton agar, 37° C., 20 hours
Procedure: as §1

[17] = test system: Staphylococcus aureus ATCC 6638p; test: as above; assay type: cell-based; conditions: ATCC6638P, 20 h
Procedure: as §1

[18] = test system: Streptococcus faecalis ATCC 29212; test: as above; assay type: cell-based; conditions: Enterococcus faecalis, ATCC29212, Muller-Hinton agar, 37° C., 20 hours
Procedure: as §1

[19] = test system: Micrococcus luteus ATCC 9341; test: as above; assay type: cell-based; conditions: ATCC9341, Muller-Hinton agar, 37° C., 20 hours
Procedure: as §1

[20] = test system: Citrobacter freundii ATCC 8090; test: as above; assay type: cell-based; conditions: ATCC8090, Muller-Hinton agar, 37° C., 20 hours
Procedure: as §1

[21] = test system: Salmonella typhimurium ATCC 14028; test: as above; assay type: cell-based; conditions: Salmonella enterica, Muller-Hinton agar, 37° C., 20 hours
Procedure: as §1

[22] = test system: Enterobacter aerogenes ATCC 29751; test: as above; assay type: cell-based; conditions: Klebsiella aerogenes, ATCC29751, 20 h
Procedure: as §1

[23] = test system: Acinetobacter calcoaceticus ATCC 15473; test: as above; assay type: cell-based; conditions: ATCC15473, Muller-Hinton agar, 37° C., 20 hours
Procedure: as §1

[24] = test system: Bacillus cereus ATCC 11778; test: as above; assay type: cell-based; conditions: Bacillus cereus, ATCC11778, 20 h
Procedure: as §1

[25] = acute toxicity test, intravenous; conditions: mouse, in vivo, ICR mice, observed for 14 days
Description: The results are shown in the last row of Table 2.

CC[n+]1c(N)cc(N)nc1SCC1=C(C(=O)[O-])N2C(=O)C(NC(=O)/C(=N\O[C@@H](C)C(=O)O)c3csc(N)n3)[C@H]2SC1 (stereo partly drawn) [I-S-3, 7[(Z)-2-(2-aminothiazol-4-yl)-2[(S)-1-carboxyeth-1-oxyimino]acetamido]-3-[(4,6-diamino-1-ethylpyrimidinium-2-yl)thiomethyl]-3-cephem-4-carboxylate]
MIC [1]: 0.031 µg/mL (≈ 0.0497 µM)
MIC (ATCC 12228): 1 µg/mL (≈ 1.6 µM)
MIC [2]: 0.031 µg/mL (≈ 0.0497 µM)
MIC [3]: 0.25 µg/mL (≈ 0.401 µM)
MIC [4]: 0.016 µg/mL (≈ 0.0257 µM)
MIC [5]: ≤ 0.008 µg/mL
MIC [6]: 1 µg/mL (≈ 1.6 µM)
MIC [7]: 0.031 µg/mL (≈ 0.0497 µM)
MIC [8]: 1 µg/mL (≈ 1.6 µM)
MIC [9]: 0.031 µg/mL (≈ 0.0497 µM)
MIC [10]: ≤ 0.008 µg/mL
MIC [11]: 2 µg/mL (≈ 3.21 µM)
MIC [12]: 0.063 µg/mL (≈ 0.101 µM)
MIC [13]: ≤ 0.008 µg/mL
MIC [14]: 1 µg/mL (≈ 1.6 µM)
MIC [15]: 0.063 µg/mL (≈ 0.101 µM)
MIC [16]: 0.031 µg/mL (≈ 0.0497 µM)
MIC [17]: 2 µg/mL (≈ 3.21 µM)
MIC [18]: > 128 µg/mL
MIC [19]: 0.25 µg/mL (≈ 0.401 µM)
MIC [20]: 0.031 µg/mL (≈ 0.0497 µM)
MIC [21]: 0.13 µg/mL (≈ 0.208 µM)
MIC [22]: 1 µg/mL (≈ 1.6 µM)
MIC [23]: 4 µg/mL (≈ 6.41 µM)
MIC [24]: 32 µg/mL (≈ 51.3 µM)
LD50 at 336 h [25]: > 3000 mg/kg

CCC[n+]1c(N)cc(N)nc1SCC1=C(C(=O)[O-])N2C(=O)C(NC(=O)/C(=N\O[C@@H](C)C(=O)O)c3csc(N)n3)[C@H]2SC1 (stereo partly drawn) [I-S-4, 7-[(Z)-2-(2-aminothiazol-4-yl)-2-[(S)-1-carboxyeth-1-oxyimino]acetamido]-3-[(4,6-diamino-1-propylpyrimidinium-2-yl)thiomethyl]-3-cephem-4-carboxylate]
MIC [1]: 0.031 µg/mL (≈ 0.0486 µM)
MIC (ATCC 12228): 1 µg/mL (≈ 1.57 µM)
MIC [2]: 0.031 µg/mL (≈ 0.0486 µM)
MIC [3]: 0.5 µg/mL (≈ 0.784 µM)
MIC [4]: 0.031 µg/mL (≈ 0.0486 µM)
MIC [5]: ≤ 0.008 µg/mL
MIC [6]: 1 µg/mL (≈ 1.57 µM)
MIC [7]: 0.031 µg/mL (≈ 0.0486 µM)
MIC [8]: 1 µg/mL (≈ 1.57 µM)
MIC [9]: 0.031 µg/mL (≈ 0.0486 µM)
MIC [10]: ≤ 0.008 µg/mL
MIC [11]: 2 µg/mL (≈ 3.14 µM)
MIC [12]: 0.063 µg/mL (≈ 0.0988 µM)
MIC [13]: ≤ 0.008 µg/mL
MIC [14]: 1 µg/mL (≈ 1.57 µM)
MIC [15]: 0.13 µg/mL (≈ 0.204 µM)
MIC [16]: 0.031 µg/mL (≈ 0.0486 µM)
MIC [17]: 2 µg/mL (≈ 3.14 µM)
MIC [18]: > 128 µg/mL
MIC [19]: 0.13 µg/mL (≈ 0.204 µM)
MIC [20]: 0.031 µg/mL (≈ 0.0486 µM)
MIC [21]: 0.13 µg/mL (≈ 0.204 µM)
MIC [22]: 1 µg/mL (≈ 1.57 µM)
MIC [23]: 4 µg/mL (≈ 6.27 µM)
MIC [24]: 32 µg/mL (≈ 50.2 µM)
LD50 at 336 h [25]: > 3000 mg/kg

C[C@H](O/N=C(\C(=O)NC1C(=O)N2C(C(=O)[O-])=C(CSc3nc(N)cc(N)[n+]3-c3ccccc3)CS[C@H]12)c1csc(N)n1)C(=O)O (stereo partly drawn) [I-S-5, 7-[(Z)-2-(2-aminothiazol-4-yl)-2-[(S)-1-carboxyeth-1-oxyimino]acetamido]-3-[(4,6-diamino-1-phenylpyrimidinium-2-yl)thiomethyl]-3-cephem-4-carboxylate]
MIC [1]: 0.13 µg/mL (≈ 0.194 µM)
MIC (ATCC 12228): 2 µg/mL (≈ 2.98 µM)
MIC [2]: 0.063 µg/mL (≈ 0.0938 µM)
MIC [3]: 0.25 µg/mL (≈ 0.372 µM)
MIC [4]: 0.13 µg/mL (≈ 0.194 µM)
MIC [5]: 0.031 µg/mL (≈ 0.0461 µM)
MIC [6]: 4 µg/mL (≈ 5.95 µM)
MIC [7]: 0.25 µg/mL (≈ 0.372 µM)
MIC [8]: 2 µg/mL (≈ 2.98 µM)
MIC [9]: 0.25 µg/mL (≈ 0.372 µM)
MIC [10]: ≤ 0.008 µg/mL
MIC [11]: 8 µg/mL (≈ 11.9 µM)
MIC [12]: 0.25 µg/mL (≈ 0.372 µM)
MIC [13]: ≤ 0.008 µg/mL
MIC [14]: 4 µg/mL (≈ 5.95 µM)
MIC [15]: 0.5 µg/mL (≈ 0.744 µM)
MIC [16]: 0.13 µg/mL (≈ 0.194 µM)
MIC [17]: 4 µg/mL (≈ 5.95 µM)
MIC [18]: > 128 µg/mL
MIC [19]: 0.25 µg/mL (≈ 0.372 µM)
MIC [20]: 0.13 µg/mL (≈ 0.194 µM)
MIC [21]: 0.5 µg/mL (≈ 0.744 µM)
MIC [22]: 2 µg/mL (≈ 2.98 µM)
MIC [23]: 16 µg/mL (≈ 23.8 µM)
MIC [24]: 32 µg/mL (≈ 47.6 µM)
LD50 at 336 h [25]: > 2000 mg/kg

Cc1c(N)nc(SCC2=C(C(=O)[O-])N3C(=O)C(NC(=O)/C(=N\O[C@@H](C)C(=O)O)c4csc(N)n4)C3SC2)[n+](C)c1N (stereo partly drawn) [I-S-6, 7-[(Z)-2-(2-aminothiazol-4-yl)-2-[(S)-1-carboxyeth-1-oxyimino]acetamido]-3-[(4,6-diamino-1,5-dimethylpyrimidinium-2-yl)thiomethyl]-3-cephem-4-carboxylate]
MIC [1]: 0.031 µg/mL (≈ 0.0497 µM)
MIC (ATCC 12228): 1 µg/mL (≈ 1.6 µM)
MIC [2]: 0.031 µg/mL (≈ 0.0497 µM)
MIC [3]: 0.25 µg/mL (≈ 0.401 µM)
MIC [4]: 0.016 µg/mL (≈ 0.0257 µM)
MIC [5]: ≤ 0.008 µg/mL
MIC [6]: 2 µg/mL (≈ 3.21 µM)
MIC [7]: 0.031 µg/mL (≈ 0.0497 µM)
MIC [8]: 1 µg/mL (≈ 1.6 µM)
MIC [9]: 0.031 µg/mL (≈ 0.0497 µM)
MIC [10]: ≤ 0.008 µg/mL
MIC [11]: 2 µg/mL (≈ 3.21 µM)
MIC [12]: 0.031 µg/mL (≈ 0.0497 µM)
MIC [13]: ≤ 0.008 µg/mL
MIC [14]: 1 µg/mL (≈ 1.6 µM)
MIC [15]: 0.13 µg/mL (≈ 0.208 µM)
MIC [16]: 0.031 µg/mL (≈ 0.0497 µM)
MIC [17]: 4 µg/mL (≈ 6.41 µM)
MIC [18]: > 128 µg/mL
MIC [19]: 0.25 µg/mL (≈ 0.401 µM)
MIC [20]: 0.016 µg/mL (≈ 0.0257 µM)
MIC [21]: 0.13 µg/mL (≈ 0.208 µM)
MIC [22]: 0.5 µg/mL (≈ 0.802 µM)
MIC [23]: 4 µg/mL (≈ 6.41 µM)
MIC [24]: 64 µg/mL (≈ 103 µM)
LD50 at 336 h [25]: > 3000 mg/kg
